Legend:
dendritic cells = assay: In vitro assay of dendritic cell migration; type: cell-based; conditions: cells incubated 24 hours with the fraction or polypeptide, then migration towards MIP-3β; ESAs at final dilution 1:20; index relative to untreated control
Protocol: The migration assay involves preliminary incubation of dendritic cells with the polypeptide or fraction to be tested, and 24 hours later the cells are washed and loaded onto the upper part of a migration chamber, the lower part containing the chemokine MIP3-β. The cells that have migrated from the upper compartment to the lower compartment are counted, and migration is quantified by determining the percentage they represent of the number of cells that were initially loaded into the upper chamber. The activity of a polypeptide corresponds to the percentage of cells that have migrated.
After 4 to 6 days of differentiation, the cells obtained are frozen in liquid nitrogen and can be stored for several years.
The dendritic cells are thawed and cultured in RPMI medium with 5% FCS, gentamicin, GM-CSF and TNFα to obtain interstitial dendritic cells. […] The cells are counted 48 hours later and 300,000 cells are placed in each Falcon culture tube in a volume of 300 μl. […] After 24 hours, the tubes are recovered, and the cells are counted and resuspended in the culture medium with 1% bovine serum albumin. • 6. […]
After 24 hours, the inserts are removed and the cells that crossed them and are at the bottom of the wells are recovered and counted. The results are expressed as the percentage of cells relative to the number originally placed in the insert. […]

[1] = test system: Langerhans cells and dendritic cells; assay: In vivo migration-inducing assay in mice (ear application, auricular lymph nodes); conditions: mouse, 5 μl of 25 mg/ml in DMSO on left ear, 24 hours
Protocol: The peptide of SEQ ID NO.16 was also tested in vivo in mice in a migration-inducing assay. In order to do this, a population of mice was used in which the EGFP gene is introduced in front of the gene for Langerin, which makes Langerhans cells naturally fluorescent. The gene encoding CCR6 is also disrupted in these mice but normal numbers of Langerhans cells are present in the epidermis. These mice are obtained by crossing two murine strains: the Langerin DTR EGFP line (Kissenpfennig A, et al. in Trends Immunol. 2006 March; 27(3):132-9. Immunity. 2005 May; 22(5):643-54) maintained at the CNRS centre for distribution, typing and archiving at Orleans, France, and subsequently available from the European Mouse Mutant Archive (EMMA, GSF National Research Centre for Environment and Health, Institute of Experimental Genetics, Ingolstädter Landstrasse 1, D-85764 Neuherberg, Munich, Germany, www.emmanet.org) under the identification number EM:01822, and the CCR6 knockout line, published by Cook et al. in Immunity, 2000, 12: 495-503 and by Lukrs et al. in J. Exp. Med., 2001, 194, 551-555.
The peptide of SEQ ID NO.16 is prepared in DMSO at a concentration of 25 mg/ml. […] The number of (naturally fluorescent) Langerhans cells is counted and the total number of dendritic cells identified by labelling with an anti-CD11c antibody.

With “glutathione S-transferase [GST, reference compound]” the “migration of dendritic cells (migration-inducing activity, migration index)” value (dendritic cells) was “no activity”.

In the case of “DTGSGGDDSEGAWGGEQQQVQQHGQSEDR (Amino acids 30-58 of the sequence of GRA5 protein from PRU strain of toxoplasma gondii) [SEQ ID NO.16, fragment corresponding to amino acids 30 to 58 of the GRA5-PRU protein, prepared by peptide synthesis]”, the “number of dendritic cells (CD11c) and Langerhans cells in auricular lymph nodes, treated side vs DMSO side” value [1] is reported as “induces the migration of these cells in vivo”.
